How the values were obtained:
[1] = biological target: GDP-bound NRAS wild-type protein (Homo sapiens, UniProt P01111); assay: Binding to NRAS by surface plasmon resonance (SPR), Single Cycle Kinetics; details: KD ratio, GDP-bound NRAS wild-type vs GDP-bound KRAS wild-type, SPR
[2] = biological target: GDP-bound HRAS wild-type protein (Homo sapiens, UniProt P01112); assay: Binding to HRAS by surface plasmon resonance (SPR), Single Cycle Kinetics; details: KD ratio, GDP-bound HRAS wild-type vs GDP-bound KRAS wild-type, SPR
Chain of GDP-bound HRAS wild-type protein (P01112 whole entry): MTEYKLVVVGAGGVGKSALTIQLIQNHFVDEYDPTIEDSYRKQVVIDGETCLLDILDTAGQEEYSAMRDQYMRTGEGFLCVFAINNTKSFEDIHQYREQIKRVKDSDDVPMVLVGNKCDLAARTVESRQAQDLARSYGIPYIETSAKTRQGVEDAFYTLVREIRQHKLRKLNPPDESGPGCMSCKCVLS

Chain of GDP-bound NRAS wild-type protein (P01111 whole entry): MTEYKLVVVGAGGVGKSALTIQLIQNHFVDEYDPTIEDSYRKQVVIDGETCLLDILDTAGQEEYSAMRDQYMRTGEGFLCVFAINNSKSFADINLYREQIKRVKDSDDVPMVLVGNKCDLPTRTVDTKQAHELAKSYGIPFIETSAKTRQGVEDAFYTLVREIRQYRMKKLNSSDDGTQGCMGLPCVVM

Structure (SMILES)	NRAS/KRAS (ratio of KD value for NRAS to KD value for KRAS) [1]	HRAS/KRAS (ratio of KD value for HRAS to KD value for KRAS) [2]
CCO[C@@H]1C[C@H]2C(=O)NC3(CC(C)(C)C3)C(=O)N(C)[C@@H](C3CCCC3)C(=O)N(C)[C@H](C(=O)N(C)CC)CC(=O)N(C)[C@@H](CC(F)F)C(=O)N[C@@H]([C@@H](C)CC)C(=O)N(C)CC(=O)N(C)[C@H]3C/C=C\CCN(C3=O)[C@@H](Cc3ccc(C(F)(F)F)cc3)C(=O)N(C)CC(=O)N[C@@H](CCc3cc(F)c(C(F)(F)F)c(F)c3)C(=O)N2C1 [PP1643]	A (a compound having 10 or more and less than 20 is denoted as A)	A (a compound having 10 or more and less than 20 is denoted as A)
CCO[C@@H]1C[C@H]2C(=O)NC3(CC(C)(C)C3)C(=O)N(C)[C@@H](C3CCCC3)C(=O)N(C)[C@H](C(=O)N(C)C)CC(=O)N(C)[C@@H](CC(F)(F)F)C(=O)N[C@@H]([C@@H](C)CC)C(=O)N(C)CC(=O)N(C)[C@H]3C/C=C\CCN(C3=O)[C@@H](Cc3ccc(C(F)(F)F)cc3)C(=O)N(C)CC(=O)N[C@@H](CCc3cc(F)c(C(F)(F)F)c(F)c3)C(=O)N2C1 [PP1644]	A (a compound having 10 or more and less than 20 is denoted as A)	A (a compound having 10 or more and less than 20 is denoted as A)
CCC[C@H]1C(=O)N[C@@H]([C@@H](C)CC)C(=O)N(C)CC(=O)N(C)[C@H]2C/C=C\CCN(C2=O)[C@@H](Cc2ccc(C(F)(F)F)cc2)C(=O)N(C)CC(=O)N[C@@H](CCc2cc(F)c(C(F)(F)F)c(F)c2)C(=O)N2C[C@H](OCC)C[C@H]2C(=O)NC2(CC(C)(C)C2)C(=O)N(C)[C@@H](C2CCCC2)C(=O)N(C)[C@H](C(=O)N(C)C)CC(=O)N1C [PP1645]	A (a compound having 10 or more and less than 20 is denoted as A)	A (a compound having 10 or more and less than 20 is denoted as A)
CCC[C@H]1C(=O)N[C@@H]([C@@H](C)CC)C(=O)N(C)CC(=O)N(C)[C@H]2C/C=C\CCN(C2=O)[C@@H](Cc2ccc(C(F)(F)F)cc2)C(=O)N(C)CC(=O)N[C@@H](CCc2cc(F)c(C(F)(F)F)c(F)c2)C(=O)N2C[C@H](OCC)C[C@H]2C(=O)NC2(CC(C)(C)C2)C(=O)N(C)[C@@H](C2CCCC2)C(=O)N(C)[C@H](C(=O)N(C)CC)CC(=O)N1C [PP1646]	A (a compound having 10 or more and less than 20 is denoted as A)	A (a compound having 10 or more and less than 20 is denoted as A)
CCO[C@@H]1C[C@H]2C(=O)NC3(CC(C)(C)C3)C(=O)N(C)[C@@H](C3CCCC3)C(=O)N(C)[C@H](C(=O)N(C)CC)CC(=O)N(C)[C@@H](CC3CC3)C(=O)N[C@@H]([C@@H](C)CC)C(=O)N(C)CC(=O)N(C)[C@H]3C/C=C\CCN(C3=O)[C@@H](Cc3ccc(C(F)(F)F)cc3)C(=O)N(C)CC(=O)N[C@@H](CCc3cc(F)c(C(F)(F)F)c(F)c3)C(=O)N2C1 [PP1648]	A (a compound having 10 or more and less than 20 is denoted as A)	A (a compound having 10 or more and less than 20 is denoted as A)
CCCC[C@H]1C(=O)N[C@@H]([C@@H](C)CC)C(=O)N(C)CC(=O)N(C)[C@H]2C/C=C\CCN(C2=O)[C@@H](Cc2ccc(C(F)(F)F)cc2)C(=O)N(C)CC(=O)N[C@@H](CCc2cc(F)c(C(F)(F)F)c(F)c2)C(=O)N2C[C@H](OCC)C[C@H]2C(=O)NC2(CC(C)(C)C2)C(=O)N(C)[C@@H](C2CCCC2)C(=O)N(C)[C@H](C(=O)N(C)C)CC(=O)N1C [PP1649]	A (a compound having 10 or more and less than 20 is denoted as A)	B (a compound having 3 or more and less than 10 is denoted as B)
CCO[C@@H]1C[C@H]2C(=O)NC3(CC(C)(C)C3)C(=O)N(C)[C@@H](C3CCCC3)C(=O)N(C)[C@H](C(=O)N(C)C)CC(=O)N(C)[C@@H](CC(C)C)C(=O)N[C@@H]([C@@H](C)CC)C(=O)N(C)CC(=O)N(C)[C@H]3C/C=C\CCN(C3=O)[C@@H](Cc3ccc(C(F)(F)F)cc3)C(=O)N(C)CC(=O)N[C@@H](CCc3cc(F)c(C(F)(F)F)c(F)c3)C(=O)N2C1 [PP1650, (2S,8S,12R,14S,20S,23S,27S,30S,36S,38Z)-20-cyclopentyl-8-[2-[3,5-difluoro-4-(trifluoromethyl)phenyl]ethyl]-12-ethoxy-27-isobutyl-N,N,3′,3′,4,19,22,26,32,35-decamethyl-30-[(1S)-1-methylpropyl]-3,6,9,15,18,21,25,28,31,34,42-undecaoxo-2-[[4-(trifluoromethyl)phenyl]methyl]spiro[1,4,7,10,16,19,22,26,29,32,35-undecazatricyclo[34.5.1.0^10,14]dotetracont-38-ene-17,1′-cyclobutane]-23-carboxamide]	A (a compound having 10 or more and less than 20 is denoted as A)	A (a compound having 10 or more and less than 20 is denoted as A)
CCO[C@@H]1C[C@H]2C(=O)NC3(CC(C)(C)C3)C(=O)N(C)[C@@H](C3CCCC3)C(=O)N(C)[C@H](C(=O)N(C)C)CC(=O)N(C)[C@@H](CC3CCC3)C(=O)N[C@@H]([C@@H](C)CC)C(=O)N(C)CC(=O)N(C)[C@H]3C/C=C\CCN(C3=O)[C@@H](Cc3ccc(C(F)(F)F)cc3)C(=O)N(C)CC(=O)N[C@@H](CCc3cc(F)c(C(F)(F)F)c(F)c3)C(=O)N2C1 [PP1651]	A (a compound having 10 or more and less than 20 is denoted as A)	B (a compound having 3 or more and less than 10 is denoted as B)
CCO[C@@H]1C[C@H]2C(=O)NC3(CC(C)(C)C3)C(=O)N(C)[C@@H](C3CCCC3)C(=O)N(C)[C@H](C(=O)N(C)CC)CC(=O)N(C)[C@@H](CC)C(=O)N[C@@H]([C@@H](C)CC)C(=O)N(C)CC(=O)N(C)[C@H]3C/C=C\CCN(C3=O)[C@@H](Cc3ccc(C(F)(F)F)cc3)C(=O)N(C)CC(=O)N[C@@H](CCc3ccc(C(F)(F)F)c(OC)c3)C(=O)N2C1 [PP1653]	A (a compound having 10 or more and less than 20 is denoted as A)	A (a compound having 10 or more and less than 20 is denoted as A)
CCCN(C)C(=O)[C@@H]1CC(=O)N(C)[C@@H](CC)C(=O)N[C@@H]([C@@H](C)CC)C(=O)N(C)CC(=O)N(C)[C@H]2C/C=C\CCN(C2=O)[C@@H](Cc2ccc(C(F)(F)F)cc2)C(=O)N(C)CC(=O)N[C@@H](CCc2ccc(C(F)(F)F)c(OC)c2)C(=O)N2C[C@H](OCC)C[C@H]2C(=O)NC2(CC(C)(C)C2)C(=O)N(C)[C@@H](C2CCCC2)C(=O)N1C [PP1654]	A (a compound having 10 or more and less than 20 is denoted as A)	A (a compound having 10 or more and less than 20 is denoted as A)
CCO[C@@H]1C[C@H]2C(=O)NC3(CC(C)(C)C3)C(=O)N(C)[C@@H](C3CCCC3)C(=O)N(C)[C@H](C(=O)N(C)CC)CC(=O)N(C)[C@@H](CC(F)F)C(=O)N[C@@H]([C@@H](C)CC)C(=O)N(C)CC(=O)N(C)[C@H]3C/C=C\CCN(C3=O)[C@@H](Cc3ccc(C(F)(F)F)cc3)C(=O)N(C)CC(=O)N[C@@H](CCc3ccc(C(F)(F)F)c(OC)c3)C(=O)N2C1 [PP1655]	A (a compound having 10 or more and less than 20 is denoted as A)	A (a compound having 10 or more and less than 20 is denoted as A)
CCCN(C)C(=O)[C@@H]1CC(=O)N(C)[C@@H](COC)C(=O)N[C@@H]([C@@H](C)CC)C(=O)N(C)CC(=O)N(C)[C@H]2C/C=C\CCN(C2=O)[C@@H](Cc2ccc(C(F)(F)F)cc2)C(=O)N(C)CC(=O)N[C@@H](CCc2ccc(C(F)(F)F)c(OC)c2)C(=O)N2C[C@H](OCC)C[C@H]2C(=O)NC2(CC(C)(C)C2)C(=O)N(C)[C@@H](C2CCCC2)C(=O)N1C [PP1656]	AA (a compound having 20 or more is denoted as AA)	A (a compound having 10 or more and less than 20 is denoted as A)
CCCOC[C@H]1C(=O)N[C@@H]([C@@H](C)CC)C(=O)N(C)CC(=O)N(C)[C@H]2C/C=C\CCN(C2=O)[C@@H](Cc2ccc(C(F)(F)F)cc2)C(=O)N(C)CC(=O)N[C@@H](CCc2ccc(C(F)(F)F)c(OC)c2)C(=O)N2C[C@H](OCC)C[C@H]2C(=O)NC2(CC(C)(C)C2)C(=O)N(C)[C@@H](C2CCCC2)C(=O)N(C)[C@H](C(=O)N(C)C)CC(=O)N1C [PP1657]	A (a compound having 10 or more and less than 20 is denoted as A)	B (a compound having 3 or more and less than 10 is denoted as B)
CC[C@H](C)[C@@H]1NC(=O)[C@H](CC(F)F)N(C)C(=O)C[C@@H](C(=O)N(C)C)N(C)C(=O)[C@H](C2CCCC2)N(C)C(=O)C2(CC(C)(C)C2)NC(=O)[C@@H]2C[C@H](C)CN2C(=O)[C@H](CCc2cc(F)c(C(F)(F)F)c(F)c2)NC(=O)CN(C)C(=O)[C@H](Cc2ccc(C(F)(F)F)cc2)N2CC/C=C\C[C@@H](C2=O)N(C)C(=O)CN(C)C1=O [PP1658]	A (a compound having 10 or more and less than 20 is denoted as A)	A (a compound having 10 or more and less than 20 is denoted as A)
CCCC[C@H]1C(=O)N[C@@H]([C@@H](C)CC)C(=O)N(C)CC(=O)N(C)[C@H]2C/C=C\CCN(C2=O)[C@@H](Cc2ccc(C(F)(F)F)cc2)C(=O)N(C)CC(=O)N[C@@H](CCc2cc(F)c(C(F)(F)F)c(F)c2)C(=O)N2C[C@@H](C)C[C@H]2C(=O)NC2(CC(C)(C)C2)C(=O)N(C)[C@@H](C2CCCC2)C(=O)N(C)[C@H](C(=O)N(C)C)CC(=O)N1C [PP1661]	A (a compound having 10 or more and less than 20 is denoted as A)	A (a compound having 10 or more and less than 20 is denoted as A)
